In data set [1] the test system is metalloproteinase (gelatinase). Briefly: Zymography of metalloproteinase (gelatinase) secretion by breast cancer cells. The format is cell-based, human. The following applies: 10^−11 M GTN, 10^−12 M SNP. The method, then: The cells were cultured using a serum-free medium (EX-CELL 300). Following incubation, the medium was extracted and centrifuged at 5,000 RPM for 5 minutes. The supernatant was subsequently collected and stored at −80° C. until further use. SDS-polyacrylamide gels were prepared in accordance with well-known procedures. For the analysis of metalloproteinase secretion, the gel contained 0.1% w/v gelatin, and for the analysis of plasminogen activator secretion, the gel was supplemented with 0.1% w/v casein as well as plasminogen (50 μg/mL). The serum-free conditioned medium was then combined with a nonreducing sample loading buffer (0.5 M Tris, 10% SDS, 1% Bromophenol Blue in 2 mL glycerol) in a ratio of 4:1 and was not boiled. Following electrophoresis, the gels underwent two 15 minute washes with 2.5% Triton X-100. This step removed the SDS. After the washes with H2O, the gels were incubated overnight at 37° C. in a solution containing Tris-HCl (pH 7.0) and CaCl2 (5 mM). The gels were stained with 0.4% Coomassie Brilliant Blue R-250 in 40% methanol/10% glacial acetic acid/50% distilled water for approximately 1 hour, and then destained for about 2 hours in 30% methanol/10% glacial acetic acid/60% distilled water. […]

The test system of data set [2] is soluble guanylyl cyclase (sGC) / cellular cGMP. Briefly: cGMP ELISA (sGC activity) in MDA-MB-231 cells. The format is cell-based, human. How it is done:
The effects of hypoxia and NO-mimetic treatment on sGC levels were determined using Western Blot analysis. To determine sGC activity, cGMP levels were measured. Briefly, cells were extracted over ice in 1 mL of 6% trichloroacetic acid (BDH Laboratory Supplies, Poole, England). The homogenate was then centrifuged at 13,000 g for 10 min. The supernatant fraction was removed and extracted five times with 2 mL of water-saturated diethyl ether (BDH). The cGMP contained in this fraction was subsequently acetylated and quantitated using an enzyme-linked immuno-sorbent assay (ELISA) kit (STI—Signal Transduction Products, San Clemente, Calif.).
To determine the effect of hypoxia on cGMP levels, MDA-MB-231 breast carcinoma cells were incubated in 0.5% O2 for 6 hours in the presence of IBMX (500 μM).
(In general: ELISA stands for enzyme-linked immunosorbent assay.)

The subject of another data set is HIF-1. Briefly: HIF-1 accumulation and transactivating activity. The format is cell-based. To be noted: high concentrations (0.1-1 mM); preliminary studies. The source says: The promotor region of uPAR contains binding sites for transcription factors such as activator protein-1 (AP-1), Sp-1/3 and nuclear factor κB (NFκB).
Data set [3] relates to prostate specific antigen (PSA). Description: PSA levels in prostate cancer patients on low dose transdermal GTN. The format is in vivo, human. How it is done:
Patients with prostatic adenocarcinoma were selected for this study because the progression of this type of cancer correlates well with the plasma levels of prostate-specific antigen (PSA). Thus, the outcome of low dose NO mimetic therapy can be easily assessed by measuring PSA levels. […] Plasma PSA levels were measured via a commercially available immunoassay kit such as Immuno 1 (Bayer Corporation).
Methods: Patients with a previous history of prostatectomy that have experienced biochemical failure as per the ASTRO criteria (three successive rises in PSA), PSA<10 (units), stable with sub-clinical disease were included in the study after signing an informed consent. All patients were placed on treatment with continuous low dose transdermal nitroglycerin (˜0.03 mg/hr, 24 hours a day). Subjects returned to the study centre for monthly PSA measurements. Subjects were withdrawn from the study if there was evidence of disease progression or other intervening medical events.

Data set [4] concerns MDA-MB-231 breast carcinoma spheroids. Briefly: Clonogenic survival of MDA-MB-231 spheroids after doxorubicin. In kind it is cell-based, human. The method, then: Following initial cell plating, spheroids formed for 24, 48, 72, 96 or 120 h. At each time point, spheroids were exposed to 200 μM of doxorubicin, then disaggregated and plated for assessment of colony formation (survival).
Spheroids were allowed to form for 72 h. DETA/NO was applied for the final 24 h of spheroid formation. Spheroids were then exposed to doxorubicin for 1 h, prior to disaggregation and plating for assessment of survival by clonogenic assay.
Using human MDA-MB-231 breast carcinoma cells in clonogenic assays, survival was determined following doxorubicin exposure and NO mimetic administration to both monolayer and spheroid cultures.

In a further data set the test system is uPAR mRNA. Description: Northern blot analysis of uPAR mRNA in MDA-MB-231 breast carcinoma cells. The format is cell-based, human.
In the next data set the test system is PAI-1 mRNA. Briefly: Northern blot of PAI-1 mRNA in breast cancer cells. To be noted: SNP 10^−12 M, GTN 10^−11 M. In kind it is cell-based, human. How it is done: Following incubation, the total cellular RNA from the cells was isolated using the Gentra […] RNA Isolation Kit. The isolated RNA was subsequently separated by electrophoresis, and transferred to charged nylon membranes. The membranes were prehybridized at 42° C. for approximately 2 hours in a solution containing 50% formamide, 5×Denhardt's solution, 0.5% sodium dodecyl sulfate (SDS), 6×SSC (1×SSC=0.15 M NaCl, 15 mM sodium citrate, pH 7.0) and 100 μg/mL denatured salmon sperm DNA. They were then hybridized with a [^32P]-dCTP-labeled cDNA probe (uPAR or PAI-1) for approximately 24 hours at 42° C. in a solution composed of 6×SSC, 0.5% SDS, 100 μg/mL denatured salmon sperm DNA and 50% formamide, and containing a cDNA probe (uPAR or PAI-1) which was labeled with [^32P]-dCTP using a Pharmacia Oligolabelling kit. Following serial washes, the membrane was used to expose Dupont Reflection NEF film. After 1-4 days, the film was developed and analyzed. To correct for differences in the amount of RNA loaded in each sample, 28S rRNA was used.

Experimental findings from US8168232B2, “Formulations and methods of using nitric oxide mimetics in cancer treatment” (priority 2000, dated 2012) are described below.

In the case of `O=[N+]([O-])OCC(CO[N+](=O)[O-])O[N+](=O)[O-]` [GTN, glyceryl trinitrate], the “gelatinases secreted vs untreated hypoxic cells” value in data set [1] is recorded as “decrease in gelatinases secreted”. Also, the “effect on hypoxic reduction of sGC activity (cGMP ELISA)” value in data set [2] (0.5% O2, 2 hours, GTN (10^−10 M, 10^−6 M)) is on record as “significantly prevented”. Also, in data set [2] (GTN 1 μM co-incubation, 0.5% O2 6 hours, IBMX 500 μM), the “effect of hypoxia on accumulated cGMP levels” value is recorded as “prevented”. Moreover, the “effect on hypoxic reduction in cGMP levels” value in data set [2] (GTN (1 mM) as printed, 6 hrs 0.5% O2, IBMX) was “completely prevented”. In addition, the “HIF-1 accumulation and transactivating activity” value with HIF-1 was “inhibit HIF-1 accumulation and transactivating activity”. For the same compound, in data set [3] (GTN 0.033 mg/hour transdermal patches, recurrent prostatic adenocarcinoma, two patients, within two months), the “plasma PSA levels” value is reported as “sharp decline”. In data set [3] (one patient, prostate intact, on anti-androgen therapy, GTN 0.03 mg/hour, about one month each), the “PSA velocity, first two treatment episodes” value is “reduction of PSA velocity”. Moreover, the “PSA levels, third treatment episode” value in data set [3] (one patient, prostate intact, GTN 0.03 mg/hour, about one month) is given as “decrease in PSA levels”. Besides, in data set [3] (one patient, chronic transdermal GTN 0.03 mg/hour, radiation alone expected average twelve months), the “time to PSA decrease with combined radiation therapy” value is recorded as “within three months”. Besides, the “mean PSA velocity on therapy” value in data set [3] (transdermal ~0.03 mg/hr 24 hours a day, 5 or more months of therapy, decreased from 14%/month, post-prostatectomy biochemical failure) amounted to 5.4 %/month. Further, the “drug related adverse events” value in data set [3] (transdermal ~0.03 mg/hr, 24 hours a day) is reported as “No patients experienced drug related adverse events”. Further, the “survival of control (doxorubicin-untreated) cells” value in data set [4] (DETA 0.1 mM and 2 μM, GTN 0.1 nM and 1 μM) is recorded as “did not affect the survival”. The “attenuation of resistance to 200 μM doxorubicin associated with 3D culture” value in data set [4] (spheroids) is reported as 30%. Besides, in the data set on uPAR mRNA (1 μM of GTN), the “effect of DFO on uPAR mRNA expression” value was “not prevented”. For the same compound, in the data set on uPAR mRNA (1% O2, SNP 10^−12 M, GTN 10^−11 M and 10^−10 M), the “uPAR mRNA levels vs untreated hypoxic cells” value was “significantly reduced”. In addition, the “hypoxic upregulation of uPAR mRNA expression” value in the data set on uPAR mRNA (GTN 1 μM) is recorded as “prevented”. Further, the “effect of hypoxia on uPAR mRNA when ODQ also present” value with uPAR mRNA (GTN 1 μM with ODQ 0.5 μM) is reported as “unable to block”. The “inhibition of DFO (100 μM)-induced upregulation of uPAR” value in the data set with uPAR mRNA (GTN (10^−10 M, 10^−6 M)) is on record as “could not be inhibited”. Besides, in the data set with uPAR mRNA (GTN (a pM) as printed), the “hypoxia-mediated increase in uPAR mRNA levels” value is listed as “inhibited”. In addition, the “uPAR transcript levels vs 20% O2 alone” value in the data set with uPAR mRNA (combination of L-NMMA (0.5 mM) and GTN (0.1 nM), 20% O2) is listed as “no significant increase”. Further, the “PAI-1 mRNA levels vs untreated hypoxic cells” value in the data set with PAI-1 mRNA is “significantly decreased”.
